In patent publication US8476197B2, “Aminopropenoates as fungicides” (priority 2009, dated 2013):
Marks after values point to notes of the source that are not given here.

details: pH 2.3

| Structure (SMILES) | Log P |
| --- | --- |
| CCOC(=O)C(C#N)=C(Nc1ccccc1SC)c1cccnc1OC [Compound 522] | 3.32^[c]; 3.32^[b] |
| COC(=O)C(C#N)=C(NC(C)C#N)c1cccnc1Cl (stereo not shown) [Compound 869] | 1.85 |
| CCOC(=O)C(C#N)=C(NC(C)C(C)C)c1cccnc1C (stereo not shown) [Compound 953] | 2.63 |
| COC(=O)C(C#N)=C(NCc1ccc(Cl)cc1)c1cccnc1Cl [Compound 336] | 2.98 |
| CONC(=O)C(C#N)=C(NC(C)C(C)C)c1cccnc1Cl (stereo not shown) [Compound 960] | 2.31 |

same assay, conditions: pH 2.7

| Structure (SMILES) | Log P |
| --- | --- |
| CCOC(=O)C(C#N)=C(NC(C)C(=O)OC)c1sccc1Br (stereo not shown) [Compound 649] | 2.96^[a] |
| CCOC(=O)C(C#N)=C(NC1CCCC1OC)c1cccnc1Cl (stereo not shown) [Compound 1432] | 2.96^[a] |
| CCOC(=O)C(C#N)=C(NCC#N)c1sccc1Br [Compound 789] | 2.33^[a] |
| CCOC(=O)C(C#N)=C(NC(C)C)c1cn(C)nc1C(F)F [Compound 1419] | 2.53^[a] |
| CCOC(=O)C(C#N)=C(NC(C)C(=O)NC)c1ccsc1Br (stereo not shown) [Compound 637] | 2.05^[a] |
| CCOC(=O)C(C#N)=C(NC(C)COc1ccc(F)cc1)c1cn(C)nc1C(F)F (stereo not shown) [Compound 736] | 3.42^[a] |
| CCOC(=O)C(C#N)=C(Nc1ccc(Cl)cc1)c1ccsc1Br [Compound 534] | 4.11^[a] |
| CCOC(=O)C(C#N)=C(NC(C)C1CCCCC1)c1sc(C)nc1C(F)(F)F (stereo not shown) [Compound 876] | 4.86^[a] |
| CCOC(=O)C(C#N)=C(NC(C)c1nccs1)c1cn(C)cc1C(F)(F)F (racemic) [Compound 271] | 2.97^[a] |
| CCOC(=O)C(C#N)=C(NC(C)C(C)CC)c1cn(C)nc1C(Cl)Cl (stereo not shown) [Compound 1577] | 3.8^[a] |
| CCOC(=O)C(C#N)=C(NC(C)C(N)=O)c1sccc1Br (stereo not shown) [Compound 652] | 1.94^[a] |
| CC(C)C(C)NC(=C(C#N)C(=O)NC1CCCC1)c1cccnc1Cl (stereo not shown) [Compound 1493] | 3.9^[a] |
| CCOC(=O)C(C#N)=C(NC(C)c1ccccc1)c1cccnc1Cl (stereo not shown) [Compound 1151] | 3.48^[a] |
| CCNC(=O)C(C#N)=C(NC(C)c1nccs1)c1cn(C)nc1C(F)F (racemic) [Compound 1294] | 2.05^[a] |
| CCOC(=O)C(C#N)=C(NC1CCC1)c1cnn(C)c1Cl [Compound 1487] | 2.82^[a] |
| C#CC(C)(C)NC(=C(C#N)C(=O)OCC)c1conc1C [Compound 1030] | 2.66^[a] |
| COC(=O)C(C#N)=C(NC(C)c1cccc(C(F)(F)F)c1)c1cccnc1Cl (stereo not shown) [Compound 401] | 3.28^[a] |
| COC(=O)C(C#N)=C(Nc1ccc(OC)cc1)c1sc(C)nc1C(F)(F)F [Compound 485] | 3.06^[a] |
| CCOC(=O)C(C#N)=C(NC(CC)c1ccccc1OC)c1cn(C)nc1C(F)F (racemic) [Compound 557] | 3.62^[a] |
| CCOC(=O)C(C#N)=C(NC(C)CC1CC1)c1cn(C)nc1C(F)F (stereo not shown) [Compound 1136] | 3.23^[a] |
| CCNC(=O)C(C#N)=C(NC(C)c1nccs1)c1cnn(C)c1C(F)F (stereo not shown) [Compound 1308] | 2.11^[a] |
| COC(=O)C(C#N)=C(NC(C)Cc1ccccc1C)c1cccnc1Cl (stereo not shown) [Compound 423] | 3.23^[a] |

| Structure (SMILES) | Log P |
| --- | --- |
| COC(=O)C(C#N)=C(NC(C)CC(C)C)c1sc(C)nc1C(F)(F)F (racemic) [Compound 782] | 3.9^[a] |
| CCOC(=O)C(C#N)=C(NC(C)C1CC1)c1cc(Cl)ncc1Cl (racemic) [Compound 896] | 3.69^[a] |
| CCOC(=O)C(C#N)=C(NC(C)C1CC1)c1cnc(Cl)cc1Cl (stereo not shown) [Compound 890] | 3.64^[a] |
| COC(=O)C(C#N)=C(NCc1nccs1)c1ncc(C(F)(F)F)cc1Cl [Compound 83] | 2.63^[a] |
| CCOC(=O)C(C#N)=C(NC(C)CN1CCOCC1)c1cccnc1Cl (racemic) [Compound 274] | 1.3^[a] |
| CC#CC(C)(C)NC(=C(C#N)C(=O)OCC)c1sccc1C(F)(F)F [Compound 1040] | 3.92^[a] |
| CCOC(=O)C(C#N)=C(NC(C)c1cccc2ccccc12)c1ncc(Cl)cc1Cl (stereo not shown) [Compound 2] | 4.65^[a] |
| CCOC(=O)C(C#N)=C(NC(C)(C)C#N)c1nc(Cl)ccc1Cl [Compound 1011] | 2.98^[a] |
| CCOC(=O)C(C#N)=C(NCC(C)N)c1sccc1C(F)(F)F (stereo not shown) [Compound 609] | 1.42^[a] |
| CCOC(=O)C(C#N)=C(NC(C(=O)OC)C(C)C)c1cn(C)nc1C(F)(F)F (stereo not shown) [Compound 713] | 3.09^[a] |
| CC(NC(=C(C#N)C(=O)O)c1cccnc1Cl)c1ccccn1 (stereo not shown) [Compound 1571] | 1.37^[a] |
| CCNC(=O)C(C#N)=C(NC(C)C(C)C)c1ccnc(Br)c1F (stereo not shown) [Compound 1323] | 3.46^[a] |
| CCOC(=O)C(C#N)=C(NC(C)C(=O)NC)c1scnc1Cl (stereo not shown) [Compound 1476] | 1.81^[a] |
| CCOC(=O)C(C#N)=C(NC(C)c1nc(C)cs1)c1cn(C)nc1C(F)F (stereo not shown) [Compound 188] | 2.65^[a] |
| C=CCCCC(C=C)NC(=C(C#N)C(=O)OC)c1sc(C)nc1C(F)(F)F (stereo not shown) [Compound 1019] | 4.19^[a] |
| CCOC(=O)C(C#N)=C(NC(C)c1ccccn1)c1cccnc1C(F)(F)F (racemic) [Compound 233] | 2.88^[a] |
| CCOC(=O)C(C#N)=C(NC(c1cc2ccccc2s1)C(F)(F)F)c1nsc(Cl)c1Cl (stereo not shown) [Compound 69] | 5.11^[a] |
| COC(=O)C(C#N)=C(NC(C)CCc1cccc(C)c1)c1cccnc1Cl (stereo not shown) [Compound 425] | 3.68^[a] |
| C=CCCCC(C=C)NC(=C(C#N)C(=O)OCC)c1sccc1Cl (stereo not shown) [Compound 1023] | 4.65^[a] |
| CCOC(=O)C(C#N)=C(Nc1ccc(N(C)C)cc1)c1cccnc1Cl [Compound 1264] | 3.17^[a] |
| CCOC(=O)C(C#N)=C(Nc1ccccc1OC(C)C)c1sccc1C(F)(F)F [Compound 460] | 4.54^[a] |
| CCOC(=O)C(C#N)=C(NC(C)(C)C=C(Cl)Cl)c1sccc1C(F)(F)F [Compound 1103] | 4.26^[a] |

| Structure (SMILES) | Log P |
| --- | --- |
| CCOC(=O)C(C#N)=C(NC(C)(C)C#Cc1ccc(C#N)cc1)c1cn(C)nc1C(F)F [Compound 1090] | 3.37^[a] |
| COC(=O)C(C#N)=C(Nc1cccc(SC)c1)c1sc(C)nc1C(F)(F)F [Compound 504] | 3.53^[a] |
| CCOC(=O)C(C#N)=C(NC(C)c1ccccn1)c1ccnc(Cl)c1F (stereo not shown) [Compound 1312] | 3^[a] |
| CCOC(=O)C(C#N)=C(NC(C)C(=O)NC)c1sccc1Br (stereo not shown) [Compound 612] | 2.07^[a] |
| COC(=O)C(C#N)=C(NC1CCC(C(C)(C)C)CC1)c1cccnc1Cl (stereo not shown) [Compound 1077] | 4.51^[a] |
| CCOC(=O)C(C#N)=C(NC(C)c1ccccn1)c1ccncc1F (mixture of isomers) [Compound 300] | 2.28^[a] |
| CCON=C(C)C(C)NC(=C(C#N)C(=O)OCC)c1cccnc1Cl (stereo not shown) [Compound 1636] | 3.29^[a] |
| CCOC(=O)C(C#N)=C(NC(C)CC(C)C)c1sccc1Br (racemic) [Compound 783] | 4.46^[a] |
| COCCNC(=O)C(C#N)=C(NC(C)c1nccs1)c1cccnc1Cl (stereo not shown) [Compound 327] | 1.93^[a] |
| CCOC(=O)C(C#N)=C(NC(C)CCCC(C)C)c1cn(C)nc1C(F)F (stereo not shown) [Compound 925] | 4.26^[a] |
| CCNC(=O)C(C#N)=C(NC(C)c1ccccn1)c1ccnc(Cl)c1Br (racemic) [Compound 1411] | 2.55^[a] |
| CCOC(=O)C(C#N)=C(NCC(C)N)c1c(C)nn(C)c1Cl (stereo not shown) [Compound 603] | 0.96^[a] |
| CCOC(=O)C(C#N)=C(NC(C(=O)OC)C(C)C)c1cn(C)cc1C(F)(F)F (stereo not shown) [Compound 726] | 3.43^[a] |
| CCOC(=O)C(C#N)=C(NC(C)C(C)C)c1cnn(C)c1Cl (stereo not shown) [Compound 1485] | 3.25^[a] |
| COCCNC(=O)C(C#N)=C(NC(C)c1nccs1)c1cn(C)nc1C(F)F (racemic) [Compound 1287] | 1.96^[a] |
| CCOC(=O)C(C#N)=C(NC(C)C1CCCO1)c1sccc1C(F)(F)F (mixture of isomers) [Compound 172] | 3.55^[a] |
| CCOC(=O)C(C#N)=C(NC(C(=O)OC)c1ccccc1)c1cn(C)nc1C(F)F (stereo not shown) [Compound 1140] | 2.94^[a] |
| COC(=O)C(C#N)=C(NCc1ncc(C)s1)c1sc(C)nc1C(F)(F)F [Compound 183] | 2.63^[a] |
| COC(=O)C(C#N)=C(NC(C)C(C)C)c1cn(C)nc1C(F)F (stereo not shown) [Compound 938] | 2.8^[a] |
| C#CCNC(=C(C#N)C(=O)OCC)c1cn(C)nc1C(F)F [Compound 1128] | 2.13^[a] |
| CCOC(=O)C(C#N)=C(NC(C)c1nccs1)c1cccnc1C(F)(F)F (racemic) [Compound 232] | 2.9^[a] |
| CCOC(=O)C(C#N)=C(Nc1ccc2ncsc2c1)c1sc(C)nc1C(F)(F)F [Compound 479] | 2.98^[a] |

same assay, conditions: pH 7.5

| Structure (SMILES) | Log P |
| --- | --- |
| COC(=O)C(NC(=C(C#N)C(=O)OCC(F)(F)F)c1cccnc1Cl)C(C)C (stereo not shown) [Compound 581] | 3.14 |
| CCOC(=O)C(C#N)=C(Nc1ccccc1SC)c1cccnc1OC [Compound 522] | 3.32^[c]; 3.32^[b] |
| COC(=O)C(C#N)=C(NC(C)C#N)c1cccnc1Cl (stereo not shown) [Compound 869] | 1.86 |
| CCOC(=O)C(C#N)=C(NC(C)C1CC1)c1ccc(C)nc1Cl (stereo not shown) [Compound 881] | 3.32 |
| CCOC(=O)C(C#N)=C(NC(C)C(C)C)c1cccnc1C (stereo not shown) [Compound 953] | 2.89 |
| COC(=O)C(C#N)=C(NCc1ccc(Cl)cc1)c1cccnc1Cl [Compound 336] | 2.96 |
| CCOC(=O)C(C#N)=C(NC(C)CSC)c1cccnc1Cl (stereo not shown) [Compound 593] | 2.71 |
| CONC(=O)C(C#N)=C(NC(C)C(C)C)c1cccnc1Cl (stereo not shown) [Compound 960] | 2.26 |
